Measured values taken from PubChem BioAssay (NCI).
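Compound exposure: 48 hours, 5 concentrations, 96-well plates. At the GI50, growth is halved. TGI: total growth inhibition.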

What was measured:
Test in all cases: NCI anticancer screen, dose series, 48 h
MCF7 breast = tested on: MCF7 breast
TK-10 renal = tested on: TK-10 renal
SF-268 CNS = tested on: SF-268 CNS
HOP-62 NSCLC = tested on: HOP-62 NSCLC
LOX IMVI melanoma = tested on: LOX IMVI melanoma
UACC-257 melanoma = tested on: UACC-257 melanoma
K-562 leukemia = tested on: K-562 leukemia
SR leukemia = tested on: SR leukemia
IGROV1 ovarian = tested on: IGROV1 ovarian
KM12 colon = tested on: KM12 colon
PC-3 prostate = tested on: PC-3 prostate
SK-OV-3 ovarian = tested on: SK-OV-3 ovarian
OVCAR-4 ovarian = tested on: OVCAR-4 ovarian
MDA-MB-231 breast = tested on: MDA-MB-231 breast
SF-539 CNS = tested on: SF-539 CNS
DU-145 prostate = tested on: DU-145 prostate
NCI-H226 lung = tested on: NCI-H226 lung
T-47D breast = tested on: T-47D breast
SK-MEL-28 melanoma = tested on: SK-MEL-28 melanoma
COLO 205 colon = tested on: COLO 205 colon
HS 578T breast = tested on: HS 578T breast
MDA-MB-435 = tested on: MDA-MB-435
ACHN renal = tested on: ACHN renal
OVCAR-8 ovarian = tested on: OVCAR-8 ovarian
SF-295 CNS = tested on: SF-295 CNS
NCI-H23 lung = tested on: NCI-H23 lung
OVCAR-3 ovarian = tested on: OVCAR-3 ovarian
SK-MEL-5 melanoma = tested on: SK-MEL-5 melanoma
U251 CNS = tested on: U251 CNS
SK-MEL-2 melanoma = tested on: SK-MEL-2 melanoma
MALME-3M melanoma = tested on: MALME-3M melanoma
M14 melanoma = tested on: M14 melanoma
MOLT-4 leukemia = tested on: MOLT-4 leukemia
HOP-92 NSCLC = tested on: HOP-92 NSCLC
HT29 colon = tested on: HT29 colon
SNB-75 CNS = tested on: SNB-75 CNS
HCC-2998 colon = tested on: HCC-2998 colon
NCI-H460 lung = tested on: NCI-H460 lung
SN12C renal = tested on: SN12C renal
A498 renal = tested on: A498 renal
BT-549 breast = tested on: BT-549 breast
786-0 renal = tested on: 786-0 renal
CAKI-1 renal = tested on: CAKI-1 renal
UO-31 renal = tested on: UO-31 renal
RPMI-8226 leukemia = tested on: RPMI-8226 leukemia
SNB-19 CNS = tested on: SNB-19 CNS
NCI/ADR-RES ovarian = tested on: NCI/ADR-RES ovarian
A549 NSCLC = tested on: A549 NSCLC
UACC-62 melanoma = tested on: UACC-62 melanoma
CCRF-CEM leukemia = tested on: CCRF-CEM leukemia
NCI-H522 lung = tested on: NCI-H522 lung
HL-60(TB) leukemia = tested on: HL-60(TB) leukemia
OVCAR-5 ovarian = tested on: OVCAR-5 ovarian
SW-620 colon = tested on: SW-620 colon

`COc1ccc2c(c1)O/C(=C\c1ncc([N+](=O)[O-])n1C)C2=O` showed a GI50 (MCF7 breast) of 495 nM, a TGI (MCF7 breast) of 9370 nM and a GI50 (TK-10 renal) of 1260 nM. It also gave a TGI (TK-10 renal) of over 20000 nM, a GI50 (SF-268 CNS) of 268 nM and a TGI (SF-268 CNS) of 1140 nM. The GI50 (HOP-62 NSCLC) was 1100 nM, the TGI (HOP-62 NSCLC) was 4180 nM and the GI50 (LOX IMVI melanoma) was 256 nM. For the same molecule, the TGI (LOX IMVI melanoma) was 889 nM, the GI50 (UACC-257 melanoma) was 590 nM and the TGI (UACC-257 melanoma) was 2160 nM. For the same molecule, the GI50 (K-562 leukemia) was 414 nM, the GI50 (SR leukemia) was 29.4 nM and the GI50 (IGROV1 ovarian) was 558 nM. For the same molecule, the TGI (IGROV1 ovarian) was 9860 nM, the GI50 (KM12 colon) was 776 nM and the TGI (KM12 colon) was 2810 nM. For the same molecule, the GI50 (PC-3 prostate) was 2240 nM, the TGI (PC-3 prostate) was over 29200 nM and the GI50 (SK-OV-3 ovarian) was 1560 nM. It also gave a TGI (SK-OV-3 ovarian) of 6860 nM, a GI50 (OVCAR-4 ovarian) of 2520 nM and a TGI (OVCAR-4 ovarian) of over 100000 nM. For the same molecule, the GI50 (MDA-MB-231 breast) was 256 nM, the TGI (MDA-MB-231 breast) was 1380 nM and the GI50 (SF-539 CNS) was 1270 nM. The TGI (SF-539 CNS) was 3200 nM, the GI50 (DU-145 prostate) was 285 nM and the TGI (DU-145 prostate) was 794 nM. The GI50 (NCI-H226 lung) was 1430 nM, the TGI (NCI-H226 lung) was 4270 nM and the GI50 (T-47D breast) was 5460 nM. For the same molecule, the TGI (T-47D breast) was over 100000 nM, the GI50 (SK-MEL-28 melanoma) was 371 nM and the TGI (SK-MEL-28 melanoma) was 2550 nM. The GI50 (COLO 205 colon) was 363 nM, the TGI (COLO 205 colon) was 2240 nM and the GI50 (HS 578T breast) was 641 nM. For the same molecule, the TGI (HS 578T breast) was over 21900 nM, the GI50 (MDA-MB-435) was 224 nM and the TGI (MDA-MB-435) was 735 nM. For the same molecule, the GI50 (ACHN renal) was 158 nM, the TGI (ACHN renal) was 495 nM and the GI50 (OVCAR-8 ovarian) was 245 nM. It also gave a TGI (OVCAR-8 ovarian) of 1940 nM, a GI50 (SF-295 CNS) of 1400 nM and a TGI (SF-295 CNS) of 5310 nM. For the same molecule, the GI50 (NCI-H23 lung) was 257 nM, the TGI (NCI-H23 lung) was 1320 nM and the GI50 (OVCAR-3 ovarian) was 376 nM. The TGI (OVCAR-3 ovarian) was 1880 nM, the GI50 (SK-MEL-5 melanoma) was 246 nM and the TGI (SK-MEL-5 melanoma) was 837 nM. For the same molecule, the GI50 (U251 CNS) was 812 nM, the TGI (U251 CNS) was 3050 nM and the GI50 (SK-MEL-2 melanoma) was 1130 nM. For the same molecule, the TGI (SK-MEL-2 melanoma) was 3700 nM, the GI50 (MALME-3M melanoma) was 379 nM and the TGI (MALME-3M melanoma) was 1700 nM. It also gave a GI50 (M14 melanoma) of 363 nM, a TGI (M14 melanoma) of 1530 nM and a GI50 (MOLT-4 leukemia) of 45.3 nM. The GI50 (HOP-92 NSCLC) was 555 nM, the TGI (HOP-92 NSCLC) was 4050 nM and the GI50 (HT29 colon) was 291 nM. It also gave a TGI (HT29 colon) of 1390 nM, a GI50 (SNB-75 CNS) of 974 nM and a TGI (SNB-75 CNS) of 3780 nM. For the same molecule, the GI50 (HCC-2998 colon) was 899 nM, the TGI (HCC-2998 colon) was 4190 nM and the GI50 (NCI-H460 lung) was 201 nM. For the same molecule, the TGI (NCI-H460 lung) was 619 nM, the GI50 (SN12C renal) was 472 nM and the TGI (SN12C renal) was 2090 nM. It also gave a GI50 (A498 renal) of 1200 nM, a TGI (A498 renal) of 2680 nM and a GI50 (BT-549 breast) of 684 nM. For the same molecule, the TGI (BT-549 breast) was 2940 nM, the GI50 (786-0 renal) was 805 nM and the TGI (786-0 renal) was 3890 nM. The GI50 (CAKI-1 renal) was 202 nM, the TGI (CAKI-1 renal) was 544 nM and the GI50 (UO-31 renal) was 334 nM. It also gave a TGI (UO-31 renal) of 1890 nM, a GI50 (RPMI-8226 leukemia) of 1340 nM and a TGI (RPMI-8226 leukemia) of 5750 nM. The GI50 (SNB-19 CNS) was 1180 nM, the TGI (SNB-19 CNS) was 6260 nM and the GI50 (NCI/ADR-RES ovarian) was 584 nM. For the same molecule, the TGI (NCI/ADR-RES ovarian) was 9510 nM, the GI50 (A549 NSCLC) was 561 nM and the TGI (A549 NSCLC) was 4540 nM. It also gave a GI50 (UACC-62 melanoma) of 848 nM, a TGI (UACC-62 melanoma) of 2410 nM and a GI50 (CCRF-CEM leukemia) of 264 nM. It also gave a TGI (CCRF-CEM leukemia) of 2020 nM, a GI50 (NCI-H522 lung) of 266 nM and a TGI (NCI-H522 lung) of 927 nM. For the same molecule, the GI50 (HL-60(TB) leukemia) was 331 nM, the GI50 (OVCAR-5 ovarian) was 1870 nM and the TGI (OVCAR-5 ovarian) was 6390 nM. For the same molecule, the GI50 (SW-620 colon) was 178 nM and the TGI (SW-620 colon) was 1310 nM.
